Substitutions are numbered along the chain they refer to.
Columns and labels:
Type in all cases: biochemical
[1] = biological target: T1, drSLC38A9^97-549 (N-terminal deletion, without N-plug) (Danio rerio, UniProt Q08BA4, N227Q/N235Q/N252Q/N263Q); assay: [3H]leucine uptake in proteoliposomes, filtration; details: 0.5 uM labelled compound, pH 5.0 assay buffer, room temperature; with or without 200 uM arginine
T1 construct: gene slc38a9; residues 97-549 (N-plug deleted); N-terminal His8-thrombin tag removed; Sf-9; liposomes
T1 sequence (Q08BA4 97-549 N227Q/N235Q/N252Q/N263Q): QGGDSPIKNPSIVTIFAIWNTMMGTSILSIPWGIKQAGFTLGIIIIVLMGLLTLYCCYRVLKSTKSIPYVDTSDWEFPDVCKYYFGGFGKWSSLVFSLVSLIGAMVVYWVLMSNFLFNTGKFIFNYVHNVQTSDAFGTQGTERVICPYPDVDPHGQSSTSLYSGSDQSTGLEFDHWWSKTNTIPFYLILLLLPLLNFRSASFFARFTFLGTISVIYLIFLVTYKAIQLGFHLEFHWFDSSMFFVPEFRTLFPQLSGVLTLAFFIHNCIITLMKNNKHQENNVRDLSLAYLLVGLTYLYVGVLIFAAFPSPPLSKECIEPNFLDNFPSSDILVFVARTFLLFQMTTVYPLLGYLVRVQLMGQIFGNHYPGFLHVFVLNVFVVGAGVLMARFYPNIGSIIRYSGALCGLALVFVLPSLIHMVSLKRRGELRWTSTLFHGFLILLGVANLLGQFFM

[2] = biological target: T2, drSLC38A9 (drSLC38A9^71-549) (Danio rerio, UniProt Q08BA4, P79A/S80A/H81A/E82A/Y85A/N227Q/N235Q/N252Q/N263Q); assay: [3H]leucine uptake in proteoliposomes, filtration; details: 0.5 uM labelled compound, pH 5.0 assay buffer, room temperature; with or without 200 uM arginine
T2 construct: gene slc38a9; residues 71-549 (N-plug kept); N-terminal His8-thrombin tag removed; Sf-9; liposomes; the printed 5A DNA also starts at residue 71
T2 sequence (Q08BA4 71-549 P79A/S80A/H81A/E82A/Y85A/N227Q/N235Q/N252Q/N263Q): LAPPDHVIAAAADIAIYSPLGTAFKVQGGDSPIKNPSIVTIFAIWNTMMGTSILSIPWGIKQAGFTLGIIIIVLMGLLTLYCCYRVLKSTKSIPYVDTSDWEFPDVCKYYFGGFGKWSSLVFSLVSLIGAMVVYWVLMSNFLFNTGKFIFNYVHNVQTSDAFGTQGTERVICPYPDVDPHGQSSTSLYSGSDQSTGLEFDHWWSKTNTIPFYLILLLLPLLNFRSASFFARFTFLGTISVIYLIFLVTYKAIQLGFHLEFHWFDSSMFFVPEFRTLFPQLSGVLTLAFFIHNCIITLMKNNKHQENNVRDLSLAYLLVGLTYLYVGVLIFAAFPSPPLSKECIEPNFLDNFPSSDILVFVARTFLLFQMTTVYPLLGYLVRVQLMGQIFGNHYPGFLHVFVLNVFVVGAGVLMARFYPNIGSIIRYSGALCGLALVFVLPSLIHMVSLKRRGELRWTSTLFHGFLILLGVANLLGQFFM

[3] = biological target: T3, drSLC38A9 (drSLC38A9^71-549) (Danio rerio, UniProt Q08BA4, N227Q/N235Q/N252Q/N263Q); assay: [3H]arginine uptake in proteoliposomes, filtration, […] min; details: outside pH 7.4, inside pH 5.0, room temperature; 0.5 uM labelled compound
T3 construct: gene slc38a9; residues 71-549 (N-plug kept); N-terminal His8-thrombin tag removed; Sf-9; liposomes; the printed 5A DNA also starts at residue 71
T3 sequence (Q08BA4 71-549 N227Q/N235Q/N252Q/N263Q): T2 sequence (Q08BA4 71-549 P79A/S80A/H81A/E82A/Y85A/N227Q/N235Q/N252Q/N263Q) with A9P, A10S, A11H, A12E, A15Y

| Compound | [3H]leucine uptake in proteoliposomes, filtration [1] | [3H]leucine uptake in proteoliposomes, filtration [2] | [3H]arginine uptake in proteoliposomes, filtration, 5 min [3] |
| --- | --- | --- | --- |
| CC(C)C[C@H](N)C(=O)O [leucine] | The mutant proteins show similar transport capacity for leucine regardless of whether arginine was added | The mutant proteins show similar transport capacity for leucine regardless of whether arginine was added |  |
| N=C(N)NCCC[C@H](N)C(=O)O [arginine] |  |  | the construct studied structurally here and the wild-type drSLC38A9 transport arginine with similar rates |
